Laboratory results from paper PMC6609550, “Blockade of the forward Na^+/Ca^2+ exchanger suppresses the growth of glioblastoma cells through Ca^2+‐mediated cell death” (British Journal of Pharmacology, 2019).

Columns and labels:
[1] = design: method as in Lipsanen et al., 2013; Mitterreiter et al., 2010; conditions: oral administration or intraperitoneal injection at 50 mg·kg^−1 body weight, two animal studies; ref Lipsanen et al., 2013; Mitterreiter et al., 2010; cited from earlier work
[2] = Cell viability assay (Cell Counting Kit-8), ranges given for U87 and U251 together; assay type: cell-based, Human; conditions: human, U87 and U251 cells, read-out: Cell viability, % of control level
Description: (§1) Cell viability was determined by using a Cell Counting Kit‐8 (Dojindo, Japan). Briefly, cells were harvested from flasks and plated in 96‐well cell culture plates at 5 × 10^3 per well and cultured overnight. Cells were treated with test reagents for 72 hr. Control cells were treated with cell culture medium and measured at the same time point as treatment groups. CCK‐8 solution (10 μl) was added to each well of the 96‐well plates, and the cultures were incubated for 30 min at 37°C. Absorbance at 450 nm was measured using an automatic microplate reader (Molecular Devices, San Jose, CA, USA).

U87 and U251 cells = test: as above; assay type: cell-based, Human; conditions: 72 hr
Description: as §1

CC(C)COCC(CN(Cc1ccccc1)c1ccccc1)N1CCCC1 (stereo not shown) [Bepridil, N‐benzyl‐N‐(3‐isobutoxy‐2‐pyrrolidin‐1‐yl‐propyl)aniline]
Penetration of the blood–brain barrier [1]: able to penetrate the blood–brain barrier (BBB) and reach the brain | viability at 72 h, 20 µM ([2]; 20 μM): 30 to 40% | viability at 72 h, 50 µM ([2]; 50 μM): 6 to 7% | viability at 72 h, 100 µM ([2]; 100 μM): 3 to 4%

CS(=O)(=O)O.N=C(N)SCCc1ccc(OCc2ccc([N+](=O)[O-])cc2)cc1 [KB‐R7943, 2‐[4‐[(4‐nitrophenyl)methoxy]phenyl]ethyl ester carbamimidothioic acid methanesulfonate]
Cell viability, % of control level (U87 and U251 cells; 20 μM): 50–60% | Cell viability, % of control level (U87 and U251 cells; 50 μM): 7–18% | Cell viability, % of control level (U87 and U251 cells; 100 μM): 2–3%
